{"source": "patent US6465527B1", "about": "“Iodinated hydrocarbon pesticide” (priority 1999, dated 2002)", "format_in_all_cases": "in vivo", "key": {"[1]": {"test_system": "German cockroach, Blattella germanica (L.)", "assay": "Fumigant toxicity in sealed glass jar, German cockroach", "settings": "30-60 adult males"}, "[2]": {"test_system": "Cowpea weevil, Callosobruchus maculatus (F.)", "assay": "Fumigant toxicity, Cowpea weevil", "design": "concentration or dose not given beside the values", "settings": "30 adults", "protocol": "Shown in Table 2 is the toxicity of both monoiodinated and diiodinated hydrocarbons to the German and American cockroach and the Cowpea weevil after 24 hours of exposure."}, "Heterodera glycines": {"test_system": "Heterodera glycines", "assay": "Greenhouse nematicide test, diiodinated C2-C8 hydrocarbons in infested field soil (Experiments 1 and 2)"}, "Meloidogyne arenaria": {"test_system": "Meloidogyne arenaria", "assay": "Greenhouse nematicide test, diiodinated C2-C8 hydrocarbons in infested field soil (Experiments 1 and 2)"}, "[3]": {"test_system": "reniform nematode [Rotylenchulus reniformis]", "assay": "Greenhouse nematicide test in cotton field soil, covered and uncovered pots (Experiment 6, FIGS. 1-4)", "source_text": "FIGS. 2 and 3 illustrate the effectiveness of the diiodoethane and diiodopropane in eliminating the nematode (Rotylenchulus reniformis) from a soil sample. The “x” axis on the top row illustrates the quantity of iodinated hydrocarbon in milligrams per kilogram of soil. The next two rows below the “x” axis indicate the number of nematodes per 100 milliliters of soil, which is also indicated on the “y” axis. In FIG. 2, 1,2-diiodoethane was applied to the soil both in a covered state and an uncovered state. […] This is believed to be so because of the volatility of 1,2 diiodoethane, wherein the cover slows down the rate at which the compound evaporates into the atmosphere.\nIn this experiment, the pesticidal and herbicidal properties of volatile, low molecular weight, iodinated hydrocarbons were investigated. The relative nematicidal efficacy of iodomethane [C1], 1,2-diiodoethane [C2], 1,3-diiodopropane [C3] and 1,4-diiodobutane [C4] was studied in greenhouse experiments with soil from a cotton field infested with the reniform nematode [Rotylenchulus reniformis]. The chemicals were obtained from Aldrich, Milwaukee, U.S.A. Emulsifiable concentrates of the compounds were prepared by dilution in acetone containing an emulsogen.\nFor each chemical, an aqueous emulsion with 0.2% [w/w] of the compound was prepared and was applied to soil at rates of 2, 4, 6, 8, 10, and 12 mgs a.i./Kg soil. The treated soil was mixed and transferred to 1L capacity 10-cm diameter cylindrical pots. Pots with untreated soil [control] and with treated soil were placed on a greenhouse bench in a randomized complete block design. Each treatment was represented by 14 replications [pots], one half of which were left uncovered, and the other 7 were covered with polyethylene plastic bags [approx. 1 mil thickness] retained with a rubber around the pots. Soil samples for nematological analysis [salad bowl incubation technique] were collected 7-10 days after application of the materials. […] In covered pots, applications of the material were particularly effective resulting in 100% kill with the 10 and 12 mg rates. All dosages of C3 and C4 eliminated the nematode in covered pots. […] In a greenhouse experiment of similar design to the nematicide experiments, the C3 and C4 emulsions were applied at rates of 2-20 mgs a.i./Kg soil to a soil infested with crabgrass [Digitaria sanguinalis], purple nutsedge [Cyperus rotundus], Jimson weed [Datura stramonium] and a variety of other weed species. All pots were covered, and the number of weeds were counted 7, 14 and 30 days after application of the chemicals."}, "[4]": {"settings": "all rates (2.5, 5.0, 7.5, 10 mg/Kg soil)"}}, "note": "“Also recorded” adds a separate entry of the source."}
{"compound": "ICCI", "note": "[1,2-diiodoethane]", "values": [{"measurement": "% Mortality after 1 h exposure, German cockroach", "setting": "[1]; 1 h exposure", "result": 40, "unit": "%"}, {"measurement": "% Mortality after 24 h exposure, German cockroach", "setting": "[1]; 24 h exposure", "result": 10, "unit": "%"}, {"measurement": "% Mortality after 24 h exposure, Cowpea weevil", "setting": "[2]", "result": 100, "unit": "%"}, {"measurement": "H. glycines J2 populations in preplant samples", "setting": "Heterodera glycines; [4]", "result": "ineffective"}, {"measurement": "H. glycines J2 numbers in final soil samples", "setting": "Heterodera glycines; final soil samples after soybean growth, rates 2.5-10 mg/kg soil, listed as C2", "result": "either no change in H. glycines J2 numbers or in increased numbers; also recorded: either no change in Hg J2 numbers or in increased numbers"}, {"measurement": "H. glycines J2 populations in preplant samples", "setting": "Heterodera glycines; rates ≧5.0 mg", "result": "suppressed"}, {"measurement": "M. arenaria juvenile (J2) populations in preplant samples", "setting": "Meloidogyne arenaria; [4]", "result": "ineffective"}, {"measurement": "M. arenaria J2 numbers in final soil samples", "setting": "Meloidogyne arenaria; final soil samples after soybean growth, rates 2.5-10 mg/kg soil", "result": "increased directly with C2 dosage"}, {"measurement": "Numbers of the nematode in soil in response to rates", "setting": "[3]; 2-12 mgs a.i./Kg soil", "result": "declined linearly"}, {"measurement": "Kill of the nematode", "setting": "[3]; covered pots, 10 and 12 mg rates", "result": 100, "unit": "%"}, {"measurement": "Effectiveness covered versus uncovered at eliminating the nematodes (FIG. 2)", "setting": "[3]; covered state and uncovered state", "result": "covered samples were more effective"}]}
